Activity calls are given as the source filed them. The calls are words filed in the database; no cut-off is given here.
How the values were obtained:
[1] = molecular target: Protein smoothened (Mus musculus, UniProt P56726); assay: Antagonist activity at Smo receptor in mouse NIH/3T3 cells harboring GRE-Luc assessed as inhibition of SAG-induced Hh signaling pathway preincubated with cells followed by SAG addition measured after 48 hrs by luciferase reporter gene assay; type: cell-based
[2] = test system: HEK293; assay: Inhibition of Wnt pathway in HEK293 cells harbouring TCF-luciferase cocultured with LWnt3A cells by Topflash reporter gene assay; type: cell-based; conditions: Homo sapiens
[3] = molecular target: Protein smoothened (Homo sapiens, UniProt Q99835); assay: Displacement of BODIPY-Cyclopamine from human HA-tagged Smo receptor expressed in human U2OS cells at 1 to 10000 nM incubated for 2 hrs by DAPI staining based fluorescence microscopic method; type: cell-based
[4] = molecular target: Voltage-gated inwardly rectifying potassium channel KCNH2 (Homo sapiens, UniProt Q12809); assay: Inhibition of human ERG by patch clamp method
[5] = molecular target: CYP2D6 (Homo sapiens, UniProt P10635); assay: Inhibition of CYP2D6 (unknown origin) at 10 uM relative to control; type: ADME
[6] = molecular target: CYP3A4 (Homo sapiens, UniProt P08684); assay: Inhibition of CYP3A4 (unknown origin) at 10 uM relative to control; type: ADME
[7] = molecular target: T1, CYP1A2 (Homo sapiens, UniProt P05177); assay: Inhibition of CYP1A2 (unknown origin) at 10 uM relative to control; type: ADME
T1 sequence (P05177 whole entry): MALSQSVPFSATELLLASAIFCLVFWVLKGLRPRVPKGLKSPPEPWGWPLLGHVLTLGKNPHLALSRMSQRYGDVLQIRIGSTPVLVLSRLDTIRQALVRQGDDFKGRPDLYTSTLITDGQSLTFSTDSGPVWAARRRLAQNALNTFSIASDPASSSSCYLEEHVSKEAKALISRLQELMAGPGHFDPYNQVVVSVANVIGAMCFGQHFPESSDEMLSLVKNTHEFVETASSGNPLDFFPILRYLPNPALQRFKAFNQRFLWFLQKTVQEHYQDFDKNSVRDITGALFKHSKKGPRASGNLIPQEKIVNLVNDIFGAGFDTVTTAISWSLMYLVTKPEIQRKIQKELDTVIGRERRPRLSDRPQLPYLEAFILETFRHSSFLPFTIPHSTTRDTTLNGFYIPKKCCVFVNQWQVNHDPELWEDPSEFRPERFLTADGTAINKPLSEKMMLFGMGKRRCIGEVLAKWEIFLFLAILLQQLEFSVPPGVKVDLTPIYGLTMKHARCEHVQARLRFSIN

[8] = molecular target: CYP2C9 (Homo sapiens, UniProt P11712); assay: Inhibition of CYP2C9 (unknown origin) at 10 uM relative to control; type: ADME
[9] = Apparent permeability from apical to basolateral side in human Caco2 cells; type: ADME, cell-based; conditions: Caco-2
[10] = Efflux ratio of apparent permeability in human Caco2 cells; type: ADME, cell-based; conditions: Caco-2
[11] = Intrinsic clearance in human liver microsomes at 1 uM; type: ADME, Microsome; conditions: read-out: CLH
[12] = molecular target: CYP2C19 (Homo sapiens, UniProt P33261); assay: Inhibition of CYP2C19 (unknown origin) at 10 uM relative to control; type: ADME
[13] = test system: Medulloblastoma cell; assay: Antiproliferative activity against mouse Ptch+/- medulloblastoma cells assessed as inhibition of cell growth incubated for 36 hrs by CCK-8 assay; type: functional, cell-based
[14] = test system: U-251; assay: Cytotoxicity activity human U251 cells assessed as reduction of cell viability upto 1000 nM incubated for 48 hrs by CCK-8 assay; type: cell-based; conditions: u-251, 48 h
[15] = molecular target: Protein smoothened (Mus musculus) (UniProt P56726); assay: Antagonist activity at Smo receptor in mouse NIH/3T3 cells assessed as inhibition of Gli1 mRNA expression incubated for 48 hrs by qRT-PCR analysis; type: cell-based
[16] = test system: Protein smoothened (Homo sapiens), Q99835 [D473H]; assay: Antagonist activity at Smo D473H mutant receptor in mouse NIH/3T3 cells assessed as inhibition of Gli1 mRNA expression incubated for 48 hrs by qRT-PCR analysis; type: cell-based
[17] = Intrinsic clearance in rat liver microsomes at 1 uM; type: ADME, Microsome; conditions: read-out: CLH
[18] = Half life in human liver microsomes at 1 uM; type: ADME, Microsome
[19] = Half life in rat liver microsomes at 1 uM; type: ADME, Microsome

Protein smoothened (Mus musculus, UniProt P56726), sequence (P56726 whole entry): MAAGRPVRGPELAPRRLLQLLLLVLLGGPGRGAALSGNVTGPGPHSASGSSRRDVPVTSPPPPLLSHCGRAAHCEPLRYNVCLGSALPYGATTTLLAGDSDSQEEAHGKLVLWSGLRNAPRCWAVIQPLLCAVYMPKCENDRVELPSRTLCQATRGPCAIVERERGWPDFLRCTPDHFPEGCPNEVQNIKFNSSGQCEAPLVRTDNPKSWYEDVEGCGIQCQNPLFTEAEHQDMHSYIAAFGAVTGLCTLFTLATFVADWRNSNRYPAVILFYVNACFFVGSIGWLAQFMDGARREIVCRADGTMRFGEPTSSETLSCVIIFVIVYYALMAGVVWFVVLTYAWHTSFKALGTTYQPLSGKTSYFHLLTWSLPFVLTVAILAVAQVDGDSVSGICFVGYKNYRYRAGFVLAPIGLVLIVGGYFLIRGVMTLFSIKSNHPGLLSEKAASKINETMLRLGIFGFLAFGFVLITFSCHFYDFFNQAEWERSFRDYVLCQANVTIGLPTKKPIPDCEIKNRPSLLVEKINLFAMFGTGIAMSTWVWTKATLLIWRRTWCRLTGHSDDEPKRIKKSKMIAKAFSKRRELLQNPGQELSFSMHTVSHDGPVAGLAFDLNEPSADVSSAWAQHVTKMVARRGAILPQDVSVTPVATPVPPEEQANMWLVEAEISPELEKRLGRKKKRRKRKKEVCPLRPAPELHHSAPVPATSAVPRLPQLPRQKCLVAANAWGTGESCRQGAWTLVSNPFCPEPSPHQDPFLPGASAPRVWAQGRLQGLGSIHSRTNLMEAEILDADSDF
Protein smoothened (Homo sapiens, UniProt Q99835), sequence (Q99835 whole entry): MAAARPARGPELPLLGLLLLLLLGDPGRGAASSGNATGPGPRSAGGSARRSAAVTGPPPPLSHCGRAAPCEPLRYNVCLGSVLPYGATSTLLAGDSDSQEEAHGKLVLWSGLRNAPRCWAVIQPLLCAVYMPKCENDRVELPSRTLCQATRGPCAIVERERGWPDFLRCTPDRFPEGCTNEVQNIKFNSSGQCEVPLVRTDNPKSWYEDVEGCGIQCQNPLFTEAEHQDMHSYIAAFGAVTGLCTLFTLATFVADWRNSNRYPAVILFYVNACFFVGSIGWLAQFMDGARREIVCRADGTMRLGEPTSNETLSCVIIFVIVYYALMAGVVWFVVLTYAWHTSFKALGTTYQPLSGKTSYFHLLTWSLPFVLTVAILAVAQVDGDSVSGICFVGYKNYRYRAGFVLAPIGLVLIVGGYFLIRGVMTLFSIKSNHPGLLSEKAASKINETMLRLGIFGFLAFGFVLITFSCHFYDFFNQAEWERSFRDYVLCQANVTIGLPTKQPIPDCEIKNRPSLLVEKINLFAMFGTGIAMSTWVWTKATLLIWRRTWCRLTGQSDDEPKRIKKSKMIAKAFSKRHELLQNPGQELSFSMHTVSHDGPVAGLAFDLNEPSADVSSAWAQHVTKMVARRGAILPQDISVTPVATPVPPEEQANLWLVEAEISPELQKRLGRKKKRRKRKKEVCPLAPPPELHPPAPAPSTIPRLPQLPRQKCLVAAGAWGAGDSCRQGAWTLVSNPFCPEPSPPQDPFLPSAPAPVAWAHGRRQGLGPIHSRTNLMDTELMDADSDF
Protein smoothened (Homo sapiens), Q99835 [D473H], sequence (Q99835 whole entry D473H): as the sequence (Q99835 whole entry) above, with D473H counted along it
CYP3A4, sequence (P08684 whole entry): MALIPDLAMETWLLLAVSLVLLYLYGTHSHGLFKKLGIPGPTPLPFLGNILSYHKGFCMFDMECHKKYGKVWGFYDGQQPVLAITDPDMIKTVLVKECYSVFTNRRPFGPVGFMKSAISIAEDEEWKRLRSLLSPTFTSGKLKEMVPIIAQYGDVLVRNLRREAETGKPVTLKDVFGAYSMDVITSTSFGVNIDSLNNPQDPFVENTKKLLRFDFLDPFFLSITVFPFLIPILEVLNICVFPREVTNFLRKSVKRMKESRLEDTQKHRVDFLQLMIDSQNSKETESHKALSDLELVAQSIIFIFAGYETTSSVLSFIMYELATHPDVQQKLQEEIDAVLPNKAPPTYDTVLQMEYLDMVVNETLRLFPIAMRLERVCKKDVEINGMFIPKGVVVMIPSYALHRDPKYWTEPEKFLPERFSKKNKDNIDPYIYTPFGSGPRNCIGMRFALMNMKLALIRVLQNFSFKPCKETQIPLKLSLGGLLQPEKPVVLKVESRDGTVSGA
Voltage-gated inwardly rectifying potassium channel KCNH2, sequence (Q12809 whole entry): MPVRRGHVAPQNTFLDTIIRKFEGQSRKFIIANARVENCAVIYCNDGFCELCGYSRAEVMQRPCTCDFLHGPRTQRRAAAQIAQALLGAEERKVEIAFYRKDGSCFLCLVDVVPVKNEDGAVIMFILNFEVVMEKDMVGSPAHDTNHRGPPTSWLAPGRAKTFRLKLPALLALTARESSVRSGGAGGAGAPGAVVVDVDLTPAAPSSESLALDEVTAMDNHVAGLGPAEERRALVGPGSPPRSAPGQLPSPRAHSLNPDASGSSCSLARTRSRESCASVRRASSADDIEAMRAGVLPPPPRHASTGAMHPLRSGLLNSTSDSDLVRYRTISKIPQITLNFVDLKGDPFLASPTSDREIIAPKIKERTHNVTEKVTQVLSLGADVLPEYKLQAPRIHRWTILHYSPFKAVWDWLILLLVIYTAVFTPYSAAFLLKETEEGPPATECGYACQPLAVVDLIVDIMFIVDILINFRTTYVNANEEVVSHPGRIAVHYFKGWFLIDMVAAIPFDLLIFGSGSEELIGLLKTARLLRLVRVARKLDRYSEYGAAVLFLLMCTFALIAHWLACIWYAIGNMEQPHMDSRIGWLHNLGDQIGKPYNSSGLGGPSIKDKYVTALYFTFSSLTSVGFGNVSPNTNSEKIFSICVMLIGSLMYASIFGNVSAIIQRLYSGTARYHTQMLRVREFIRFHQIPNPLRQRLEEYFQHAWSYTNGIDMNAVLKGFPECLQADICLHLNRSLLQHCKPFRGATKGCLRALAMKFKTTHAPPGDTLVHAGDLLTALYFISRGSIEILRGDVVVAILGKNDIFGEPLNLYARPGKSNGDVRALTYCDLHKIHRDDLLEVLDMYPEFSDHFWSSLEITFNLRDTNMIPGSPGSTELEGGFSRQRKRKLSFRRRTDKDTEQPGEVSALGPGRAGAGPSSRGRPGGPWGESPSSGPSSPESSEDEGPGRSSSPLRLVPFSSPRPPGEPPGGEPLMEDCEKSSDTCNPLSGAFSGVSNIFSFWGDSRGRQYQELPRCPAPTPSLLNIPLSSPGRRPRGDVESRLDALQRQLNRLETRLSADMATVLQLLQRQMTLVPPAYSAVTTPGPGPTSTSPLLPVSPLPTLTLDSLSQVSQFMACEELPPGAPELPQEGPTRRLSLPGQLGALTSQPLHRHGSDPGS
CYP2C9, sequence (P11712 whole entry): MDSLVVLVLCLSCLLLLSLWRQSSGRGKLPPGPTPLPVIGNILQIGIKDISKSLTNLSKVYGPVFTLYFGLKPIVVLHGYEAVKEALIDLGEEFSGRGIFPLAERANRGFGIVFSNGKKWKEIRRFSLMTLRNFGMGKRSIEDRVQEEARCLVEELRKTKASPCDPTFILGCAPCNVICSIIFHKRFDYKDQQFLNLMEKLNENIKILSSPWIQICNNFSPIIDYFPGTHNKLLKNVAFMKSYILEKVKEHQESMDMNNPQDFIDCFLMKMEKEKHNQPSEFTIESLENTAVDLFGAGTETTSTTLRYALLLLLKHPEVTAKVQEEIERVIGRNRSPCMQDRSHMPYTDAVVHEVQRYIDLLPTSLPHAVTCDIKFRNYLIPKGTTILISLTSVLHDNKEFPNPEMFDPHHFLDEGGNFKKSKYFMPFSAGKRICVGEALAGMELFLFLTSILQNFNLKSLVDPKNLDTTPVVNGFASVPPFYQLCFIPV
Protein smoothened (Mus musculus), sequence (P56726 whole entry): as the sequence (P56726 whole entry) above
CYP2D6, sequence (P10635 whole entry): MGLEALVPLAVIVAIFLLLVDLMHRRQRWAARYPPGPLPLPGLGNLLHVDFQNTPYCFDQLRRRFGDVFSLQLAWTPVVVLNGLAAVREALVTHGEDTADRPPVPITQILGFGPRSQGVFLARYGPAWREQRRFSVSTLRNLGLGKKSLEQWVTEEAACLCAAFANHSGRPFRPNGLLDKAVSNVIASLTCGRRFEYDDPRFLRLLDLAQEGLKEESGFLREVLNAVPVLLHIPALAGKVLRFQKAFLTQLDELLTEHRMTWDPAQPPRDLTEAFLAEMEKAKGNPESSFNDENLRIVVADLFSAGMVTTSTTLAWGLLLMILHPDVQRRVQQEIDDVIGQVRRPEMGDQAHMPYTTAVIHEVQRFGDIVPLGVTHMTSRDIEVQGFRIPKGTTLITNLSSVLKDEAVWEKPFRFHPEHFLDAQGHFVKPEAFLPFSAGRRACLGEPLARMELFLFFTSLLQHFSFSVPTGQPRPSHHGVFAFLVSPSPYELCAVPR
CYP2C19, sequence (P33261 whole entry): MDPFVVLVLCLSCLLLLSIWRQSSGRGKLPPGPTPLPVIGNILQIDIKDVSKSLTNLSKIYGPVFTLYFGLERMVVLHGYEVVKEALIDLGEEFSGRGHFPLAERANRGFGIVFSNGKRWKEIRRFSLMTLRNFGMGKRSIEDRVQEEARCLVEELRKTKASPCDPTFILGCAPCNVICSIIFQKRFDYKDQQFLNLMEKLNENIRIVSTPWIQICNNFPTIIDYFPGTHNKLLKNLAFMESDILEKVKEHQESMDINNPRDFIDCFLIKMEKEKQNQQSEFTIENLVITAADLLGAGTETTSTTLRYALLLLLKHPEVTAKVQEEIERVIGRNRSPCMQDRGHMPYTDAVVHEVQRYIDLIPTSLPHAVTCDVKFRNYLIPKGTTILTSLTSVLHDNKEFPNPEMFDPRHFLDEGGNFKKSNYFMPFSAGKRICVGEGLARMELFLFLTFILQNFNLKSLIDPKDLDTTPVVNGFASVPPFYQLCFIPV

Which IC50 [1] does the source give for CC1CCCCC1NC(=O)C1CCN(c2nnc(-n3cccn3)s2)CC1 (configuration not stated) here?
Its IC50 is > 10000 nM.

For Cc1ccc(NCc2ccnn2-c2nnc(N3CCC(C(=O)Nc4ncccc4C)CC3)s2)nc1, which IC50 [1] is on record?
The IC50 was 280 nM.

And the inhibition [2]?
The inhibition was “Active”.

With Cc1ccc(NCc2ccnn2-c2nnc(N3CCC(C(=O)Nc4ccccc4C)CC3)s2)nc1 as the compound, how does the IC50 [1] read?
Its IC50 is 140 nM.

And the inhibition [2]?
The inhibition was “Active”.

For Cc1ccc(OCc2ccnn2-c2nnc(N3CCC(C(=O)NC4CCCCC4C)CC3)s2)nc1 (configuration not stated), which IC50 [1] is on record?
Its IC50 is 42 nM.

What about the inhibition [2] of the same compound?
Its inhibition is “Active”.

Which IC50 [1] does the source give for Cc1ccc(NCc2ccnn2-c2nnc(N3CCC(C(=O)NC4CCCCC4C)CC3)s2)cc1 (configuration not stated) here?
Its IC50 is 46 nM.

What about the IC50 [3] of the same compound?
Its IC50 is 18 nM.

What about the inhibition [2] of the same compound?
The inhibition was “Active”.

Which IC50 [1] does the source give for Cc1ccc(NCc2ccnn2-c2nnc(N3CCC(C(=O)Nc4cnccc4C)CC3)s2)nc1 here?
Its IC50 is 550 nM.

What about the inhibition [2] of the same compound?
Its inhibition is “Active”.

What does the source list for Cc1cnc(NCc2ccnn2-c2nnc(N3CCC(C(=O)NC4CCCCC4C)CC3)s2)nc1 (configuration not stated)?
IC50 [1]: 180 nM; inhibition [2]: Active

What does the source list for Cc1ccc(NCc2ccnn2-c2nnc(N3CCC(C(=O)NC4CCCCC4C)CC3)s2)cn1 (configuration not stated)?
IC50 [1]: 51 nM; inhibition [2]: Active

For CC1CCCCC1NC(=O)C1CCN(c2nnc(-c3ccnn3C)s2)CC1 (configuration not stated), which IC50 [1] is on record?
Its IC50 is > 10000 nM.

For CN(C(=O)c1ccc(F)cc1C(F)(F)F)C1CCN(c2nnc(-c3ccnn3C)s2)CC1, which IC50 [1] is on record?
Its IC50 is > 10000 nM.

Which results are given for CC1CCCCC1NC(=O)C1CCN(c2nnc(-n3nccc3CNc3cccnc3)s2)CC1 (configuration not stated)?
IC50 [1]: 69 nM; inhibition [2]: Active

Which results are given for Cc1ccc(NCc2ccnn2-c2nnc(N3CCC(C(=O)N[C@H]4CCCC[C@H]4C)CC3)s2)nc1?
IC50 [4]: > 30000 nM; inhibition at 10 µM [5]: 59%; inhibition at 10 µM [6]: 72%; inhibition at 10 µM [7]: -4%; inhibition at 10 µM [8]: 26%; Papp A→B [9]: 23 ×10⁻⁶ cm/s; efflux ratio [10]: 1.03; CLint scaled at 1 µM [11]: 2700 mL/min/kg; inhibition at 10 µM [12]: 7.1%; IC50 [1]: 7.1 nM; IC50 [13]: 0.5 nM; Activity [14]: Non-Toxic; inhibition [15]: Active; inhibition [16]: Active; CLint scaled at 1 µM [17]: 2000 mL/min/kg; half-life at 1 µM [18]: 38.4 s; half-life at 1 µM [19]: 78 s; inhibition [2]: Active

For Cc1ccc(NCc2ccnn2-c2nnc(N3CCC(C(=O)NC4CCCCC4C)CC3)s2)nc1 (racemic), which IC50 [1] is on record?
Its IC50 is 7.1 nM.

And the IC50 [3]?
Its IC50 is 3.9 nM.

What about the inhibition [2] of the same compound?
The inhibition was “Active”.

For CC1CCCCC1NC(=O)C1CCN(c2nnc(-n3nccc3CNc3ccccn3)s2)CC1 (configuration not stated), which IC50 [1] is on record?
Its IC50 is 18 nM.

What about the inhibition [2] of the same compound?
Its inhibition is “Active”.

What does the source list for Cc1ccc(NCc2ccnn2-c2nnc(N3CCC(C(=O)Nc4ccncc4C)CC3)s2)nc1?
IC50 [1]: 220 nM; inhibition [2]: Active

With CC1CCCCC1NC(=O)C1CCN(c2nnc(-n3nccc3CO)s2)CC1 (configuration not stated) as the compound, how does the IC50 [1] read?
The IC50 was > 10000 nM.

Which IC50 [1] does the source give for Cc1cc(C)n(-c2nnc(N3CCC(C(=O)NC4CCCCC4C)CC3)s2)n1 (configuration not stated) here?
The IC50 was > 10000 nM.

For CS(=O)(=O)c1ccc(C(=O)Nc2ccc(Cl)c(-c3ccccn3)c2)c(Cl)c1 [VISMODEGIB], which IC50 [13] is on record?
The IC50 was 4.7 nM.

What about the Activity [14] of the same compound?
The Activity was “Non-Toxic”.

And the inhibition [16]?
The inhibition was “inactive”.

Which results are given for Cc1ccc(NCc2ccccc2-c2nnc(N3CCC(C(=O)NC4CCCCC4C)CC3)s2)nc1 (configuration not stated)?
IC50 [1]: 290 nM; inhibition [2]: Active

With CC(O)c1ccnn1-c1nnc(N2CCC(C(=O)NC3CCCCC3C)CC2)s1 (configuration not stated) as the compound, how does the IC50 [1] read?
Its IC50 is 3700 nM.

And the inhibition [2]?
Its inhibition is “Active”.

What does the source list for Cc1ccc(NCc2ccnn2-c2nnc(N3CCC(C(=O)N[C@@H]4CCCC[C@@H]4C)CC3)s2)nc1?
IC50 [1]: 8.4 nM; inhibition [2]: Active

For Cc1ccc(NCc2c(-c3nnc(N4CCC(C(=O)NC5CCCCC5C)CC4)s3)cnn2C)nc1 (configuration not stated), which IC50 [1] is on record?
Its IC50 is 1800 nM.

And the inhibition [2]?
The inhibition was “Active”.

For C[C@@H]1CN(c2nnc(Cc3ccccc3)s2)CCN1c1cnc(C(C)(C)O)cn1, which IC50 [1] is on record?
Its IC50 is > 10000 nM.

For Cc1ccc(NCc2ccnn2-c2nnc(N3CCC(C(=O)NC4CCCCC4C)CC3)s2)nn1 (configuration not stated), which IC50 [1] is on record?
Its IC50 is 81 nM.

And the inhibition [2]?
Its inhibition is “Active”.

What does the source list for Cc1ccc(NCc2ccnn2-c2nnc(N3CCC(C(=O)Nc4cccnc4C)CC3)s2)nc1?
IC50 [1]: 460 nM; inhibition [2]: Active

For Cc1ccc(CCc2ccnn2-c2nnc(N3CCC(C(=O)NC4CCCCC4C)CC3)s2)nc1 (configuration not stated), which IC50 [1] is on record?
Its IC50 is 57 nM.

What about the inhibition [2] of the same compound?
The inhibition was “Active”.

For Cc1cnc(NCc2ccnn2-c2nnc(N3CCC(C(=O)NC4CCCCC4C)CC3)s2)cn1 (configuration not stated), which IC50 [1] is on record?
Its IC50 is 410 nM.

And the inhibition [2]?
The inhibition was “Active”.
